Assay results as given in article PMC9080270 (RSC Advances, 2018).
pKd: −log10 of the molar value.

Molecular target: T1, adenosine A1 receptor (A1AR) (Homo sapiens, UniProt P30542)
T1 sequence (P30542 1-326): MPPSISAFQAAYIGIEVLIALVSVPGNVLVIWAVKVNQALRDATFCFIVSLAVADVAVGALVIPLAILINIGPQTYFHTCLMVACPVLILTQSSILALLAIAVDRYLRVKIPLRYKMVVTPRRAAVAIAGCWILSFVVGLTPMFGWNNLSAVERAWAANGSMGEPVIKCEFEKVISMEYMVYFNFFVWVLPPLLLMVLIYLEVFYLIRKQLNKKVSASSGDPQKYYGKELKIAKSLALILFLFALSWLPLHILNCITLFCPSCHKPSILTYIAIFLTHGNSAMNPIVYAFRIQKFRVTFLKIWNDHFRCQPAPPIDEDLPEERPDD
Test: NanoBRET saturation binding in HEK293 cells
Assay type: cell-based

CA200645 showed a pKd of 6.96.
